Molecular target: Lysine-specific histone demethylase 1A (Homo sapiens, UniProt O60341)
Test: In Vitro Enzyme Inhibition Assay - LSD-1
Method: The enzymatic assay of LSD1 activity is based on Time Resolved-Fluorescence Resonance Energy Transfer (TR-FRET) detection. […] Plates were read by EnVision Multilabel Reader in TR-FRET mode (excitation at 320 nm, emission at 615 nm and 665 nm) after 1 hour incubation at room temperature.

IC50: < 100 nM
Compound: COc1ccc(-c2c(-c3ccc(C#N)c(F)c3)cc(C(=O)N3CCC[C@@H](N)C3)n2CCCC(=O)O)cc1 [US10626103, Example 41]
